Measurements as given in PubChem BioAssay (NCI).
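Exposure lasted 48 hours, with cells grown in 96-well plates and compounds tested at five concentrations. Abbreviation: GI50, concentration required for 50% inhibition of growth. TGI: concentration producing complete growth inhibition.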 The source made the active and inactive calls. Cut-off read from the data, not from the text of the source: active = GI50 below about 0.43 µM; inactive = the rest.

Experiments:
Assay in all cases: DTP human tumour cell line panel, 48 h
ACHN renal = test system: ACHN renal
CAKI-1 renal = test system: CAKI-1 renal
DU-145 prostate = test system: DU-145 prostate
HOP-92 NSCLC = test system: HOP-92 NSCLC
KM12 colon = test system: KM12 colon
MALME-3M melanoma = test system: MALME-3M melanoma
MDA-MB-231 breast = test system: MDA-MB-231 breast
MDA-MB-435 = test system: MDA-MB-435
NCI-H460 lung = test system: NCI-H460 lung
OVCAR-3 ovarian = test system: OVCAR-3 ovarian
OVCAR-4 ovarian = test system: OVCAR-4 ovarian
OVCAR-5 ovarian = test system: OVCAR-5 ovarian
OVCAR-8 ovarian = test system: OVCAR-8 ovarian
PC-3 prostate = test system: PC-3 prostate
RPMI-8226 leukemia = test system: RPMI-8226 leukemia
RXF 393 renal = test system: RXF 393 renal
SF-295 CNS = test system: SF-295 CNS
SF-539 CNS = test system: SF-539 CNS
SK-MEL-5 melanoma = test system: SK-MEL-5 melanoma
SK-OV-3 ovarian = test system: SK-OV-3 ovarian
SNB-75 CNS = test system: SNB-75 CNS
SW-620 colon = test system: SW-620 colon
UO-31 renal = test system: UO-31 renal
A498 renal = test system: A498 renal
BT-549 breast = test system: BT-549 breast
COLO 205 colon = test system: COLO 205 colon
EKVX NSCLC = test system: EKVX NSCLC
HCC-2998 colon = test system: HCC-2998 colon
HCT-15 colon = test system: HCT-15 colon
HL-60(TB) leukemia = test system: HL-60(TB) leukemia
HOP-62 NSCLC = test system: HOP-62 NSCLC
IGROV1 ovarian = test system: IGROV1 ovarian
K-562 leukemia = test system: K-562 leukemia
LOX IMVI melanoma = test system: LOX IMVI melanoma
MCF7 breast = test system: MCF7 breast
MOLT-4 leukemia = test system: MOLT-4 leukemia
NCI-H226 lung = test system: NCI-H226 lung
NCI-H23 lung = test system: NCI-H23 lung
NCI-H522 lung = test system: NCI-H522 lung
NCI/ADR-RES ovarian = test system: NCI/ADR-RES ovarian
SK-MEL-2 melanoma = test system: SK-MEL-2 melanoma
SK-MEL-28 melanoma = test system: SK-MEL-28 melanoma
SR leukemia = test system: SR leukemia
TK-10 renal = test system: TK-10 renal
U251 CNS = test system: U251 CNS
UACC-257 melanoma = test system: UACC-257 melanoma
UACC-62 melanoma = test system: UACC-62 melanoma
CCRF-CEM leukemia = test system: CCRF-CEM leukemia
HT29 colon = test system: HT29 colon

With `COc1ccc(-c2ccc(-c3ccc(C(=N)N)nc3)s2)cc1Cl` the GI50 (ACHN renal) was 1.77 µM, the TGI (ACHN renal) was 3.15 µM and the GI50 (CAKI-1 renal) was 1.74 µM. It also gave a TGI (CAKI-1 renal) of 3.12 µM, a GI50 (DU-145 prostate) of 1.77 µM and a TGI (DU-145 prostate) of 3.15 µM. The GI50 (HOP-92 NSCLC) was 1.63 µM, the TGI (HOP-92 NSCLC) was 3.41 µM and the GI50 (KM12 colon) was 1.81 µM. The TGI (KM12 colon) was 3.32 µM, the GI50 (MALME-3M melanoma) was 1.78 µM and the TGI (MALME-3M melanoma) was 3.32 µM. For the same molecule, the GI50 (MDA-MB-231 breast) was 1.7 µM, the TGI (MDA-MB-231 breast) was 3.38 µM and the GI50 (MDA-MB-435) was 1.73 µM. It also gave a TGI (MDA-MB-435) of 3.12 µM, a GI50 (NCI-H460 lung) of 1.8 µM and a TGI (NCI-H460 lung) of 3.36 µM. For the same molecule, the GI50 (OVCAR-3 ovarian) was 1.83 µM, the TGI (OVCAR-3 ovarian) was 3.24 µM and the GI50 (OVCAR-4 ovarian) was 1.74 µM. For the same molecule, the TGI (OVCAR-4 ovarian) was 3.25 µM, the GI50 (OVCAR-5 ovarian) was 1.86 µM and the TGI (OVCAR-5 ovarian) was 3.32 µM. For the same molecule, the GI50 (OVCAR-8 ovarian) was 2.6 µM, the TGI (OVCAR-8 ovarian) was 7.13 µM and the GI50 (PC-3 prostate) was 1.78 µM. For the same molecule, the TGI (PC-3 prostate) was 3.49 µM, the GI50 (RPMI-8226 leukemia) was 2.25 µM and the TGI (RPMI-8226 leukemia) was 4.9 µM. The GI50 (RXF 393 renal) was 1.76 µM, the TGI (RXF 393 renal) was 3.23 µM and the GI50 (SF-295 CNS) was 1.8 µM. The TGI (SF-295 CNS) was 3.24 µM, the GI50 (SF-539 CNS) was 1.74 µM and the TGI (SF-539 CNS) was 3.17 µM. It also gave a GI50 (SK-MEL-5 melanoma) of 1.82 µM, a TGI (SK-MEL-5 melanoma) of 3.32 µM and a GI50 (SK-OV-3 ovarian) of 1.75 µM. For the same molecule, the TGI (SK-OV-3 ovarian) was 3.36 µM, the GI50 (SNB-75 CNS) was 1.43 µM and the TGI (SNB-75 CNS) was 2.8 µM. It also gave a GI50 (SW-620 colon) of 1.79 µM, a TGI (SW-620 colon) of 3.37 µM and a GI50 (UO-31 renal) of 1.55 µM. For the same molecule, the TGI (UO-31 renal) was 2.91 µM.
`C=CCN1C(=O)/C(=C/c2ccco2)N=C1SC1OC(COC(C)=O)C(OC(C)=O)C(OC(C)=O)C1OC(C)=O` (stereo not drawn) was tested, and the TGI (A498 renal) was greater than 100 µM, the TGI (ACHN renal) was greater than 100 µM and the TGI (BT-549 breast) was greater than 100 µM. The TGI (CAKI-1 renal) was greater than 100 µM, the TGI (COLO 205 colon) was greater than 100 µM and the TGI (DU-145 prostate) was greater than 100 µM. The TGI (EKVX NSCLC) was greater than 100 µM, the TGI (HCC-2998 colon) was greater than 100 µM and the TGI (HCT-15 colon) was greater than 100 µM. The TGI (HL-60(TB) leukemia) was 53.4 µM, the TGI (HOP-62 NSCLC) was greater than 100 µM and the TGI (HOP-92 NSCLC) was greater than 100 µM. The TGI (IGROV1 ovarian) was greater than 100 µM, the TGI (K-562 leukemia) was greater than 100 µM and the TGI (KM12 colon) was greater than 100 µM. The TGI (LOX IMVI melanoma) was greater than 100 µM, the TGI (MALME-3M melanoma) was greater than 100 µM and the TGI (MCF7 breast) was greater than 100 µM. It also gave a TGI (MDA-MB-231 breast) greater than 100 µM, a TGI (MDA-MB-435) greater than 100 µM and a TGI (MOLT-4 leukemia) greater than 100 µM. It also gave a TGI (NCI-H226 lung) greater than 100 µM, a TGI (NCI-H23 lung) greater than 100 µM and a TGI (NCI-H460 lung) greater than 100 µM. It also gave a TGI (NCI-H522 lung) of 51.7 µM, a TGI (NCI/ADR-RES ovarian) greater than 100 µM and a TGI (OVCAR-3 ovarian) greater than 100 µM. It also gave a TGI (OVCAR-4 ovarian) greater than 100 µM, a TGI (OVCAR-5 ovarian) greater than 100 µM and a TGI (OVCAR-8 ovarian) greater than 100 µM. It also gave a TGI (PC-3 prostate) greater than 100 µM, a TGI (RPMI-8226 leukemia) greater than 100 µM and a TGI (RXF 393 renal) greater than 100 µM. For the same molecule, the TGI (SF-295 CNS) was greater than 100 µM, the TGI (SF-539 CNS) was greater than 100 µM and the TGI (SK-MEL-2 melanoma) was greater than 100 µM. For the same molecule, the TGI (SK-MEL-28 melanoma) was greater than 100 µM, the TGI (SK-MEL-5 melanoma) was greater than 100 µM and the TGI (SK-OV-3 ovarian) was greater than 100 µM. The TGI (SNB-75 CNS) was greater than 100 µM, the TGI (SR leukemia) was greater than 100 µM and the TGI (SW-620 colon) was greater than 100 µM. It also gave a TGI (TK-10 renal) greater than 100 µM, a TGI (U251 CNS) greater than 100 µM and a TGI (UACC-257 melanoma) greater than 100 µM. It also gave a TGI (UACC-62 melanoma) greater than 100 µM.
With `O=c1c2ccccc2c(=O)c2c1c1[nH]c3ccccc3c1c1c(=O)c3ccccc3c(=O)c21` the outcome (MOLT-4 leukemia) was “inactive”, the outcome (RPMI-8226 leukemia) was “inactive” and the outcome (SR leukemia) was “inactive”.
In the case of `COc1ccc2[nH]c3c(c2c1)CCN[C@]31CS[C@@H]2c3c(OC(C)=O)c(C)c4c(c3[C@H](COC1=O)N1[C@@H]2[C@H]2c3c(cc(C)c(OC)c3O)C[C@@H]([C@@H]1O)N2C)OCO4`, the TGI (ACHN renal) is reported as 1.12 µM, the TGI (CAKI-1 renal) is reported as 1.68 µM and the TGI (CCRF-CEM leukemia) is reported as greater than 100 µM. It also gave a TGI (HOP-92 NSCLC) of 0.0132 µM, a TGI (HT29 colon) greater than 100 µM and a TGI (K-562 leukemia) greater than 100 µM. For the same molecule, the TGI (MOLT-4 leukemia) was greater than 100 µM and the TGI (SR leukemia) was greater than 100 µM.
